In the oligonucleotide strings, read from the 5' end, every base follows the letter of its sugar. An asterisk marks phosphorothioate; unmarked linkages are phosphodiester. Other units and linkages are bracketed, terminal groups are in braces. A string of capitals states the bases alone. {NAG37} = tridentate N-acetyl-galactosamine targeting ligand, structure (NAG37)s; [invAb] = inverted abasic unit; m = 2'-O-methyl; f = 2'-fluoro
Tests used:
ANGPTL3 gene [1] = test: Example 9: serum triglycerides in cynomolgus monkeys; type: in vivo, cynomolgus macaque (Macaca fascicularis); conditions: 2.0 mg/kg single SC injection day 1, cynos, n=3
Protocol: Additional ANGPTL3 RNAi agents were evaluated in cynomolgus monkeys. On day 1, cynomolgus macaque (Macaca fascicularis) primates (also referred to herein as “cynos”) were administered a single subcutaneous injection of 0.3 mL/kg (approximately 2-3 mL volume, depending on animal mass) containing 2.0 mg/kg of an ANGPTL3 RNAi agent, which included either AD05488, AD05743, AD05775, or AD05841, each formulated in saline. […] ANGPTL3 RNAi agents AD05488, AD05743, and AD05775 included nucleotide sequences designed to target position 304 of the ANGPTL3 gene. ANGPTL3 RNAi agent AD05841 included nucleotide sequences designed to target position 1035 of the ANGPTL3 gene.
Three (3) cynos in each group were tested (n=3). Blood samples were drawn and serum samples were analyzed on days −14 (predose), −7 (predose), 1 (pre-dose), 8, 15, 22, 29, and 35. Cynos were fasted overnight prior to each collection. ANGPTL3 protein levels in serum were measured by ELISA assay (R&D Systems), according to the manufacturer's recommendations. Triglycerides, total cholesterol, high-density lipoprotein (HDL), and low-density lipoprotein (LDL) in serum were measured on a Cobas® Integra 400 (Roche Diagnostics), according to the manufacturer's recommendations.
The ANGPTL3 protein levels, triglyceride levels, total cholesterol levels, HDL levels, and LDL levels for each animal were normalized. For normalization, the level of ANGPTL3 protein, triglyceride, HDL, and total cholesterol, respectively, for each animal at a time point, was divided by the average pre-treatment level of expression in that animal (in this case at days −14, −7, and 1) to determine the ratio of expression “normalized to pre-treatment.”

ANGPTL3 protein = test: Example 14: RNAi agent and statin, serum ANGPTL3 protein by ELISA in LDLR knockout mice; type: in vivo, LDLR KO mice
Description: (§1) To evaluate the effect of co-administration of RNAi agents and statins in a disease model, LDLR KO mice were commercially obtained (The Jackson Laboratory). For three weeks prior to the onset of the study, forty-one (41) male 7 to 8 week old LDLR KO mice were placed on a high fat (“western”) diet (Teklad Custom Diets TD.88137), and remained on that diet throughout the duration of the study. Pre-dose serum samples were taken on study Day 1 after a four hour fast. The dosing regimen for the study is recited in the following Table 72:
(§2) • Mice were treated at 40 mg/kg for the first 11 days, then switched to 20 mg/kg thereafter.
(§3) The vehicle used for the oral gavage in the study was a 1:1 mixture of Ora-Plus®: Ora-Sweet® solution, which were acquired commercially. For the preparation of the atorvastatin oral gavage administrations, the respective desired dose of atorvastatin was first dissolved in sterile water (0.3 mL water per 1 mL of desired formulation) and vortexed until smooth, followed by the addition of a mixture of 1:1 Ora-Plus®: Ora-Sweet® solution (0.7 mL vehicle per 1 mL of desired formulation) and vortexed. On day 1 and for each day thereafter an oral gavage dose was administered for each of the Groups except for Group 2. On Day 23, Groups 1, 2, 3, and 4 received a single subcutaneous administration of 2.5 mg/kg dose ([…] solution) of an ANGPTL3 RNAi agent in D5W (dextrose in 5% water), or vehicle control (D5W) with no RNAi agent.
(§4) The RNAi agent tested (AD05488) included a modified sequence and an N-acetyl-galactosamine-containing targeting ligand conjugated to the 5′ terminal end of the sense strand. (See Tables 3, 4, and 5 for modified sequences and targeting ligand structures). The injections were performed between the skin and muscle (i.e. subcutaneous injections) into the loose skin over the neck and shoulder area. Serum was collected on days 8, 15, 22 (pre-RNAi agent injection), 29, 36, 43, and 50. LDLR KO mice were fasted for four hours prior to each collection.
(§5) ANGPTL3 protein levels in serum were measured by ELISA assay (R&D Systems), according to the manufacturer's recommendations. Among other biomarkers, triglycerides, total cholesterol, and low-density lipoprotein (LDL) in serum were measured on a Cobas® Integra 400 (Roche Diagnostics), according to the manufacturer's recommendations.
(§6) The ANGPTL3 protein levels, triglyceride levels, total cholesterol levels, HDL levels, and LDL levels for each animal were normalized. For normalization, respective levels of ANGPTL3 protein, TG, total cholesterol, or LDL for each animal at a time point was divided by the pre-treatment level of expression in that animal (in this case pre-dose levels on Day 1) to determine the ratio of expression “normalized to pre-treatment.” Data from the study set forth in this Example are shown in the following Tables 73-76: […]

ANGPTL3 gene [2] = test: Example 14: RNAi agent and statin, serum triglycerides in LDLR knockout mice; type: in vivo, LDLR KO mice
Description: as §1, §2, §3, §4, §5, §6

[3] = Group 2: no gavage, 2.5 mg/kg AD05488 SC on day 23, Day 8 (pre-RNAi agent injection)
[4] = Group 2: no gavage, 2.5 mg/kg AD05488 SC on day 23, Day 15 (pre-RNAi agent injection)
[5] = Group 2: no gavage, 2.5 mg/kg AD05488 SC on day 23, Day 22 (pre-RNAi agent injection)
[6] = Group 2: no gavage, 2.5 mg/kg AD05488 SC on day 23, Day 29
[7] = Group 2: no gavage, 2.5 mg/kg AD05488 SC on day 23, Day 36
[8] = Group 2: no gavage, 2.5 mg/kg AD05488 SC on day 23, Day 43
[9] = Group 2: no gavage, 2.5 mg/kg AD05488 SC on day 23, Day 50
[10] = Group 3: 10 mg/kg daily oral gavage atorvastatin, 2.5 mg/kg AD05488 on day 23, Day 8 (pre-RNAi agent injection)
[11] = Group 3: 10 mg/kg daily oral gavage atorvastatin, 2.5 mg/kg AD05488 on day 23, Day 15 (pre-RNAi agent injection)
[12] = Group 3: 10 mg/kg daily oral gavage atorvastatin, 2.5 mg/kg AD05488 on day 23, Day 22 (pre-RNAi agent injection)
[13] = Group 3: 10 mg/kg daily oral gavage atorvastatin, 2.5 mg/kg AD05488 on day 23, Day 29
[14] = Group 3: 10 mg/kg daily oral gavage atorvastatin, 2.5 mg/kg AD05488 on day 23, Day 36
[15] = Group 3: 10 mg/kg daily oral gavage atorvastatin, 2.5 mg/kg AD05488 on day 23, Day 43
[16] = Group 3: 10 mg/kg daily oral gavage atorvastatin, 2.5 mg/kg AD05488 on day 23, Day 50
[17] = Group 4: 20 mg/kg* daily oral gavage atorvastatin (40 mg/kg first 11 days), 2.5 mg/kg AD05488 on day 23, Day 8 (pre-RNAi agent injection)
[18] = Group 4: 20 mg/kg* daily oral gavage atorvastatin (40 mg/kg first 11 days), 2.5 mg/kg AD05488 on day 23, Day 15 (pre-RNAi agent injection)
[19] = Group 4: 20 mg/kg* daily oral gavage atorvastatin (40 mg/kg first 11 days), 2.5 mg/kg AD05488 on day 23, Day 22 (pre-RNAi agent injection)
[20] = Group 4: 20 mg/kg* daily oral gavage atorvastatin (40 mg/kg first 11 days), 2.5 mg/kg AD05488 on day 23, Day 29
[21] = Group 4: 20 mg/kg* daily oral gavage atorvastatin (40 mg/kg first 11 days), 2.5 mg/kg AD05488 on day 23, Day 36
[22] = Group 4: 20 mg/kg* daily oral gavage atorvastatin (40 mg/kg first 11 days), 2.5 mg/kg AD05488 on day 23, Day 43
[23] = Group 4: 20 mg/kg* daily oral gavage atorvastatin (40 mg/kg first 11 days), 2.5 mg/kg AD05488 on day 23, Day 50

Substance: AD05488: RNAi agent duplex: antisense AM07235-AS, sense AM07234-SS (antisense mU*fA*mC*fUmGfAmUfCmAfAmAfUmAfUmGfUmUfGmAfG*mC; sense {NAG37}*[invAb]*mGmCmUmCmAmAmCmAfUfAfUmUmUmGmAmUmCmAmGmUmA*[invAb])
- Average Triglycerides Normalized to Pre-Treatment (ANGPTL3 gene [1]; Day 8): 0.413
- Average Triglycerides Normalized to Pre-Treatment (ANGPTL3 gene [1]; Day 15): 0.403
- Average Triglycerides Normalized to Pre-Treatment (ANGPTL3 gene [1]; Day 22): 0.288
- Average Triglycerides Normalized to Pre-Treatment (ANGPTL3 gene [1]; Day 29): 0.344
- Average Triglycerides Normalized to Pre-Treatment (ANGPTL3 gene [1]; Day 35): 0.350
- Avg ANGPTL3 normalized to pre-treatment (ANGPTL3 protein; [3]): 1.419
- Avg ANGPTL3 normalized to pre-treatment (ANGPTL3 protein; [4]): 1.584
- Avg ANGPTL3 normalized to pre-treatment (ANGPTL3 protein; [5]): 1.658
- Avg ANGPTL3 normalized to pre-treatment (ANGPTL3 protein; [6]): 0.023
- Avg ANGPTL3 normalized to pre-treatment (ANGPTL3 protein; [7]): 0.012
- Avg ANGPTL3 normalized to pre-treatment (ANGPTL3 protein; [8]): 0.020
- Avg ANGPTL3 normalized to pre-treatment (ANGPTL3 protein; [9]): 0.026
- Avg ANGPTL3 normalized to pre-treatment (ANGPTL3 protein; [10]): 1.597
- Avg ANGPTL3 normalized to pre-treatment (ANGPTL3 protein; [11]): 1.765
- Avg ANGPTL3 normalized to pre-treatment (ANGPTL3 protein; [12]): 1.681
- Avg ANGPTL3 normalized to pre-treatment (ANGPTL3 protein; [13]): 0.015
- Avg ANGPTL3 normalized to pre-treatment (ANGPTL3 protein; [14]): 0.005
- Avg ANGPTL3 normalized to pre-treatment (ANGPTL3 protein; [15]): 0.007
- Avg ANGPTL3 normalized to pre-treatment (ANGPTL3 protein; [16]): 0.010
- Avg ANGPTL3 normalized to pre-treatment (ANGPTL3 protein; [17]): 1.683
- Avg ANGPTL3 normalized to pre-treatment (ANGPTL3 protein; [18]): 1.999
- Avg ANGPTL3 normalized to pre-treatment (ANGPTL3 protein; [19]): 1.675
- Avg ANGPTL3 normalized to pre-treatment (ANGPTL3 protein; [20]): 0.022
- Avg ANGPTL3 normalized to pre-treatment (ANGPTL3 protein; [21]): 0.004
- Avg ANGPTL3 normalized to pre-treatment (ANGPTL3 protein; [22]): 0.005
- Avg ANGPTL3 normalized to pre-treatment (ANGPTL3 protein; [23]): 0.010
- reduction in ANGPTL3 protein levels (ANGPTL3 protein; single 2.5 mg/kg subcutaneous on Day 23, LDLR KO mice on high fat diet): clear reduction
- Avg TG normalized to pre-treatment (ANGPTL3 gene [2]; [3]): 0.988
- Avg TG normalized to pre-treatment (ANGPTL3 gene [2]; [4]): 1.247
- Avg TG normalized to pre-treatment (ANGPTL3 gene [2]; [5]): 1.524
- Avg TG normalized to pre-treatment (ANGPTL3 gene [2]; [6]): 0.166
- Avg TG normalized to pre-treatment (ANGPTL3 gene [2]; [7]): 0.125
- Avg TG normalized to pre-treatment (ANGPTL3 gene [2]; [8]): 0.139
- Avg TG normalized to pre-treatment (ANGPTL3 gene [2]; [9]): 0.153
- Avg TG normalized to pre-treatment (ANGPTL3 gene [2]; [10]): 0.613
- Avg TG normalized to pre-treatment (ANGPTL3 gene [2]; [11]): 0.436
- Avg TG normalized to pre-treatment (ANGPTL3 gene [2]; [12]): 0.614
- Avg TG normalized to pre-treatment (ANGPTL3 gene [2]; [13]): 0.072
- Avg TG normalized to pre-treatment (ANGPTL3 gene [2]; [14]): 0.058
- Avg TG normalized to pre-treatment (ANGPTL3 gene [2]; [15]): 0.076
- Avg TG normalized to pre-treatment (ANGPTL3 gene [2]; [16]): 0.065
- Avg TG normalized to pre-treatment (ANGPTL3 gene [2]; [17]): 0.567
- Avg TG normalized to pre-treatment (ANGPTL3 gene [2]; [18]): 0.526
- Avg TG normalized to pre-treatment (ANGPTL3 gene [2]; [19]): 0.748
- Avg TG normalized to pre-treatment (ANGPTL3 gene [2]; [20]): 0.071
- Avg TG normalized to pre-treatment (ANGPTL3 gene [2]; [21]): 0.058
- Avg TG normalized to pre-treatment (ANGPTL3 gene [2]; [22]): 0.089
- Avg TG normalized to pre-treatment (ANGPTL3 gene [2]; [23]): 0.082
- effects on lipid parameters (ANGPTL3 gene [2]; co-administration of atorvastatin (Groups 3 and 4), LDLR KO mice on high fat diet): additive effects
- total reductions in triglycerides (ANGPTL3 gene [2]; co-administration of atorvastatin and RNAi agent (Groups 3 and 4), LDLR KO mice on high fat diet): ~ 95%

From US12729377B2, “RNAi agents and compositions for inhibiting expression of angiopoietin-like 3 (ANGPTL3), and methods of use” (Arrowhead Pharmaceuticals, Inc., priority 2017, dated 2026)
